Assay [1] deals with Eimeria culture (93% E bovis, 4% E. auburnenis and 3% E. zuernii). Kind of assay: Example 2: prevention of coccidiosis in Eimeria challenged calves, treated day 10 post-challenge. Type of assay: in vivo. The note with it: for Mortality Rates: 10 calves, 28 day study; for clinical responses compared to saline treated animals: conclusion of Example 2; for oocyst shedding compared with the saline controls: days 19-28 post-infection; for oocyst shedding compared with the saline controls / mean daily attitude scores compared to the saline controls / mean daily fecal consistency scores compared with the saline treated calves / mean daily hydration scores compared to the saline treated calves: tilmicosin 10 mg/kg SC once, amprolium 10 mg/kg oral 5 days; for calves that died due to coccidiosis: deaths on day 23 and day 28 post-infection; for mean daily attitude scores compared to the saline controls / mean daily fecal consistency scores compared with the saline treated calves: p≦0.05. From the text: Administration of amprolium was compared with tilmicosin, a commercially available macrolide antibiotic, in the prevention of coccidiosis in Eimeria challenged calves.
Sixty naive calves were housed in five holding pens (12 animals/pen). Calves were held 7 days prior to challenge in order to acclimate to the facility. On days −6, −4, and −2 pre-challenge fecal samples were obtained for semi-quantitative oocyst counts. On day −4 pre-challenge, oocysts were speciated if present. On day 0 calves were inoculated orally with the Eimeria culture. Temperatures were determined and recorded at approximately the same time each day for the duration of the study. Attitude, hydration and fecal consistency scores were evaluated daily. Post-challenge, fecal samples were collected on days 2, 4, 6, 8 and 10. Oocysts were speciated on day 10 post-challenge.
On day 10 post-challenge, each of fifty animals was randomly allotted to one of five treatment groups. Agents were either administered subcutaneously in the pre-scapular region of the neck or drench dosed orally.
Post-treatment, fecal samples were taken for semi-quantitative analysis of the shedding of coccidia oocysts on days 12, 14, 16 and 18. Beginning on day 19 and continuing through day 28, daily fecal samples were evaluated for semi-quantitative counts. Speciation of shed oocysts was performed on days 19-21, 23, 26 and 28.
Calves dying during the course of the study or euthanized due to a moribund condition associated with clinical coccidiosis were considered mortalities. Mortalities were necropsied and gross findings were recorded. At study termination (day 28), all remaining animals were weighed, euthanized, and post mortem examinations conducted.
Description of Disease Outbreak—Calves were inoculated orally with 2 ml of a coccidia challenge containing 125,000 sporulated oocysts with a species percent count of 93% E bovis, 4% E. auburnenis and 3% E. zuernii coccidia oocysts. At 19 days post-challenge, oocyst shedding was detected.

The subject of assay [2] is bovine coccidia (Eimeria bovis ~90% and Eimeria auburnenis ~10%). Kind of assay: Example 1: coccidiosis in Eimeria challenged calves, treated once clinical disease and oocyst shedding had begun. Type of assay: in vivo. Conditions: for mean daily attitude scores compared to the saline controls / mean daily fecal consistency scores compared to the saline treated calves / number of animals that ceased oocyst shedding compared to the saline treated calves: amprolium oral SIDX5; for Mortality Rates: 8 calves, 21 day study; for calves that died due to coccidiosis: deaths within 24 hours of dosing; for number of animals that ceased oocyst shedding compared to the saline treated calves: from day 6 post-dosing, Formula II 5 and 2.5 mg/kg. The source says:
Administration of an azalide macrolide antibiotic according to the invention was compared with administration of amprolium, a commercially available agent, and saline control solution, in preventing full development of coccidiosis in Eimeria challenged calves.
Eighty naive calves weighing approximately 110-125 kg were housed in twenty holding pens (4 animals/pen) 16 days prior to study initiation. […] The calves were acclimated in order to facilitate coccidial exposure and allow time for clinical signs to develop. On day 14, with no signs of naturally occurring coccidiosis in the calves, each calf was challenged orally with a mixed culture of bovine coccidia (Eimeria bovis˜90% and Eimeria auburnenis ˜10%). Calves were each also challenged orally with 1.25×10^7 oocysts and observed for signs of clinical disease. On day 23 post-challenge, calves began to show signs of clinical disease and fecal samples were taken to determine oocyst shedding.
Calves were randomly allotted to one of six treatment groups. They were weighed at allotment and treatments administered subcutaneously in the pre-scapular region of the neck. Amprolium was administered by drench dosing (SIDX5) beginning on the day of allotment.
Rectal temperatures were determined and recorded at approximately the same time each day for the 21 day duration of the study. Attitude, hydration and fecal consistency scores were evaluated daily. Daily fecal samples were taken for qualitative analysis of the shedding of oocysts. Mortalities were necropsied and gross findings were recorded.
At termination of the experiment, surviving animals were weighed, euthanized, and post-mortem examinations conducted.

Setting [3] is: Formula II 5 and 2.5 mg/kg SC once, p>0.05.
The mark [4] stands for this setting: amprolium (Corid 20% soluble powder) oral drench SIDX5.

The values that follow come from US20040214782A1, “Treatment or prevention of coccidiosis” (priority 1999, published 2004).

Each structure is given as a SMILES string.

Consider `CCCc1ncc(C[n+]2ccccc2C)c(N)n1` [Amprolium, amprolium], for which, in assay [1], the “21 day average daily weight gain relative to saline” value is listed as “Numerical increases in weight gain”, the “clinical responses compared to saline treated animals” value is listed as “improved clinical responses”, the “oocyst shedding compared with the saline controls” value was “decreased oocyst shedding” and the “calves that died due to coccidiosis” value is listed as “One animal”. In assay [1], the “mean daily attitude scores compared to the saline controls” value is reported as “significant reductions”, the “mean daily fecal consistency scores compared with the saline treated calves” value is “statistically significant reductions” and the “mean daily hydration scores compared to the saline treated calves” value is “reductions”. For the same molecule, the “21 Day Average Daily Gain” value in assay [1] (amprolium 10 mg/kg, 5 days drench dosing) is 0.60 kg. The “Mortality Rates” value in assay [1] (amprolium (Corid 9.6% Oral Solution) 10 mg/kg, 5 days drench dosing) is reported as 1/10 (10%). Further, in assay [2] (setting [3]), the “mean daily attitude scores compared to the saline controls” value is “significant reductions” and the “mean daily fecal consistency scores compared to the saline treated calves” value is reported as “statistically significant reductions”. Besides, in assay [2] (setting [4]), the “21 Day Average Daily Gain” value came out at 0.75 kg, the “Proportion of infected calves that ceased oocyst shedding 6 days post-treatment” value (from here on “Proportion”) is 7/7 (100%) and the “Mortality Rates” value is reported as 1/8 (13%). For the same molecule, the “clinical responses (clinical scores, weight gain and oocyst shedding) compared to the saline control group” value in assay [2] (conclusion of Example 1) was “improved clinical responses”. Moreover, in assay [2] (azalide at 5 and 2.5 mg/kg), the “calves that died due to coccidiosis” value is reported as “one”. Also, the “number of animals that ceased oocyst shedding compared to the saline treated calves” value in assay [2] (p>0.05) was “significant increase”.

With `CCCN(C)C[C@]1(O)[C@H](C)O[C@@H](O[C@H]2[C@H](C)[C@@H](O[C@@H]3O[C@H](C)C[C@H](N(C)C)[C@H]3O)[C@@](C)(O)C[C@@H](C)CN[C@H](C)[C@@H](O)[C@](C)(O)[C@@H](CC)OC(=O)[C@@H]2C)C[C@@]1(C)OC` [Compound of Formula II], in assay [2] (2.5 mg/kg, SIDX1, SC), the “21 Day Average Daily Gain” value was 1.03 kg, the “Proportion” value is reported as 7/8 (88%) and the “Mortality Rates” value is listed as 0/8 (0%). For the same molecule, in assay [2] (5 mg/kg, SIDX1, SC), the “21 Day Average Daily Gain” value came out at 0.79 kg, the “Proportion” value is 7/8 (88%) and the “Mortality Rates” value is 0/8 (0%). In assay [2] (setting [3]), the “mean daily attitude scores compared to the saline controls” value was “significant reductions”, the “mean daily fecal consistency scores compared to the saline treated calves” value is recorded as “statistically significant reductions” and the “mean daily hydration scores compared to the saline treated calves” value was “statistically significant reductions”. Moreover, in assay [2] (azalide at 5 and 2.5 mg/kg), the “21 day weight gain compared to the saline controls” value was “Numerical increases in weight gain” and the “calves that died due to coccidiosis” value is reported as “no mortalities”. For the same molecule, the “clinical responses (clinical scores, weight gain and oocyst shedding) compared to the saline control group” value in assay [2] (conclusion of Example 1) is “improved clinical responses”. Further, in assay [2] (conclusion of Example 1, less complicated dosing regimen), the “efficacy relative to amprolium” value was “comparable to that of amprolium”. The “number of animals that ceased oocyst shedding compared to the saline treated calves” value in assay [2] (p>0.05) was “significant increase”.

On to `CC[C@H]1OC(=O)C[C@@H](O)[C@H](C)[C@@H](O[C@@H]2O[C@H](C)[C@@H](O)[C@H](N(C)C)[C@H]2O)[C@@H](CCN2C[C@H](C)C[C@H](C)C2)C[C@@H](C)C(=O)/C=C/C(C)=C/[C@@H]1CO[C@@H]1O[C@H](C)[C@@H](O)[C@@H](OC)[C@H]1OC` [Tilmicosin, tilmicosin], for which, in assay [1], the “21 day average daily weight gain relative to saline” value is listed as “responded similarly”, the “clinical responses compared to saline treated animals” value is reported as “improved clinical responses”, the “oocyst shedding compared with the saline controls” value was “decreased oocyst shedding” and the “calves that died due to coccidiosis” value is listed as “Two animals died”. Moreover, in assay [1], the “mean daily attitude scores compared to the saline controls” value is on record as “significant reductions”, the “mean daily fecal consistency scores compared with the saline treated calves” value is on record as “statistically significant reductions” and the “mean daily hydration scores compared to the saline treated calves” value is “reductions”. Moreover, in assay [1] (tilmicosin 10 mg/kg SIDX1, SC), the “21 Day Average Daily Gain” value worked out at 0.21 kg and the “Mortality Rates” value is given as 2/10 (20%).
